We go through 26 compounds from ChEMBL document CHEMBL4390646, “A fragment-based approach towards the discovery of N-substituted tropinones as inhibitors of Mycobacterium tuberculosis transcriptional regulator EthR2” (Eur J Med Chem, 2019).

Calls of active or inactive are those of the source. No cut-off for these calls is given here.

Test [1] has as its system Mycobacterium tuberculosis. The test is described as follows: Inhibition of EthR2 in Mycobacterium tuberculosis assessed as potentiation of ETH bioactivation up to 30 uM using 0.1 ug/ml ETH.
The test system of test [2] is Mycobacterium tuberculosis. The test is described as follows: Binding affinity to recombinant Mycobacterium tuberculosis EthR2 assessed as change in melting temperature at 20 uM by SYPRO Orange dye based fluorescence thermal shift assay.
The nature of test [3]: Inhibition of recombinant Mycobacterium tuberculosis EthR2 expressed in golden hamster BHK21 cells assessed as reduction in EthR2 and DNA interaction measured after 48 hrs by p-nitrophenyl phosphate based SEAP reporter gene assay. Type of test: cell-based. In general terms: In a reporter assay the amount or activity of a reporter protein is the signal.
The subject of test [4] is Mycobacterium tuberculosis. Put plainly: Binding affinity to recombinant Mycobacterium tuberculosis EthR2 assessed as change in melting temperature at 1 mM by Nano Orange dye based fluorescence thermal shift assay.
The target of test [5] is HTH-type transcriptional regulator EthR (Mycobacterium tuberculosis) (UniProt P9WMC1). The test is described as follows: Binding affinity to Mycobacterium tuberculosis EthR at 30 uM by mammalian reporter assay.
Chain of HTH-type transcriptional regulator EthR (Mycobacterium tuberculosis) (P9WMC1 whole entry): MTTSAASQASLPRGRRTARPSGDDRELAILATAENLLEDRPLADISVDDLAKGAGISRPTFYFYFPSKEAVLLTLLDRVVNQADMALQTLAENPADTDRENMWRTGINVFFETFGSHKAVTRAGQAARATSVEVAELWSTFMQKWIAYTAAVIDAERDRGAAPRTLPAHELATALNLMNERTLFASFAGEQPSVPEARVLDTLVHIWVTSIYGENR

As usually defined, the ΔTm is the change in melting temperature against a reference sample. Consider `O=C1CC2CCC(C1)N2CCc1ccncc1`, for which the result in test [1] was inactive. Moreover, in test [2], the ΔTm is 0 °C.
Turning to `O=C1CC2CCC(C1)N2Cc1ccc(Cl)cc1`, in test [2], the ΔTm was determined as 0 °C.
For orientation: pIC50 means −log10 of the IC50, conventionally taken in molar units. Take `COC1(OC)CC2CCC(C1)N2CCc1ccc(Cl)cc1`: the negative-log IC50 (pIC50) in test [3] is < 4.8. For the same compound, the ΔTm in test [2] worked out at 0.2 °C.
In the case of `COc1ccc(CCN2C3CCC2CC(=O)C3)cc1`, the ΔTm in test [2] is 0.3 °C.
For `CCCNC(=O)Nc1cccc(C)n1`, the negative-log IC50 (pIC50) in test [3] is listed as < 4. Further, the shift in melting temperature (ΔTm) in test [4] amounted to 2.2 °C.
On to `FC(F)=C1CC2CCC(C1)N2CCc1ccc(Cl)cc1`, for which the pIC50 in test [3] is recorded as < 4.8. The ΔTm in test [2] was 0.6 °C.
As to `O=C1CC2CCC(C1)N2CCc1ccccc1C(F)(F)F`, the ΔTm in test [2] came to 0.3 °C.
With `O=C1CC2CCC(C1)N2CCc1ccc(Cl)cc1`, the result in test [1] and in test [5] was inactive. In addition, in test [3], the pIC50 came to 6. For the same compound, the shift in melting temperature (ΔTm) is 0.6 °C in test [2] and 3.4 °C in test [4].
On to `O=C1C2CCC1CN(CCc1ccc(Cl)cc1)C2`, for which, in test [2], the ΔTm is 0.1 °C.
In the case of `O=C1CC2CCC(C1)N2CCc1ccc(C(F)(F)F)cc1`, the result in test [1] was inactive. Also, the pIC50 in test [3] was 6.7. Further, in test [2], the ΔTm worked out at 1.8 °C.
Consider `O=C1CC2CCC(C1)N2CCc1ccccc1`, for which the result in test [1] was inactive. Further, the pIC50 in test [3] is given as 5. Also, the ΔTm in test [2] was found to be 0.1 °C.
Consider `N=C(N)Nc1nc2ccccc2s1`, for which the pIC50 in test [3] was < 4. Besides, in test [4], the ΔTm came out at 2.8 °C.
Regarding `O=C1CC2CCC(C1)N2CCc1cccc(C(F)(F)F)c1`, the thermal shift (ΔTm) in test [2] was -0.1 °C.
Turning to `O=C1CC2CCC(C1)N2CCc1ccc(Cl)c(Cl)c1`, the outcome in test [1] was inactive. In test [3], the pIC50 is 6. Besides, the ΔTm in test [2] came out at 1 °C.
With `CC(C)Sc1nc2[nH]cnc(N)c-2n1`, the pIC50 in test [3] turned out to be 5.1. Further, in test [4], the ΔTm came out at 2.5 °C.
Regarding `O=C1CC2CCC(C1)N2CCc1ccc(Cl)cc1Cl`, the negative-log IC50 (pIC50) in test [3] was determined as 5.7. In test [2], the ΔTm is 0.2 °C.
On to `O=C1CC2CCC(C1)N2C(=O)Cc1ccc(Cl)cc1`, for which the ΔTm in test [2] is -0.1 °C.
The same measure, in the same setting: the figure for `CC(Cc1ccc(Cl)cc1)N1C2CCC1CC(=O)C2` (stereo not drawn) is 0.1 °C.
For `O=C1CC2CCC(C1)N2CCc1ccc(Br)cc1`, the result in test [1] was inactive. The pIC50 in test [3] is listed as 6.1. Moreover, the ΔTm in test [2] stood at 1 °C.
`O=C1CC2CCCC(C1)N2CCc1ccc(Cl)cc1`: the result in test [1] was inactive. Besides, the pIC50 in test [3] came out at 5.8. For the same compound, the ΔTm in test [2] was 0.6 °C.
The matching figures for `Cc1ccc(CCN2C3CCC2CC(=O)C3)cc1`: “inactive”, 5.8 and 0.6 °C.
Turning to `Clc1cccc(CN2CCNCC2)c1`, in test [3], the pIC50 stood at 5.5. In addition, in test [4], the ΔTm came out at 3.1 °C.
Regarding `Clc1ccc(CCN2C3CCC2CC2(C3)OCCO2)cc1`, the pIC50 in test [3] is < 4.8. In addition, the ΔTm in test [2] was determined as 0.1 °C.
`O=C1C2CCCC1CN(CCc1ccc(Cl)cc1)C2`: the ΔTm in test [2] was -0.1 °C.
`O=C1CC2CCC(C1)N2CCc1ccc(F)cc1`: the outcome in test [1] was inactive. Also, the pIC50 in test [3] stood at 5.6. The ΔTm in test [2] stood at 0.4 °C.
With `O=C1CC2CCC(C1)N2CCc1ccc([N+](=O)[O-])cc1`, the ΔTm in test [2] is -0.2 °C.
